Tests used:
[1] = molecular target: T1, hMATR (Homo sapiens, UniProt P09237); assay: Ki for MMP inhibition, hMATR; type: biochemical
T1 sequence (P09237 95-267): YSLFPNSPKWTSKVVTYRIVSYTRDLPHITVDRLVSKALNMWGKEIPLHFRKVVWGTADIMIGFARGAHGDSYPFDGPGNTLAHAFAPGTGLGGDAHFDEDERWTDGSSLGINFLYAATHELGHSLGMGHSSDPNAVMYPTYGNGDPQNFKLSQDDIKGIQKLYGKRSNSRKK
From the text: (§1) The present invention is further directed to methods of inhibiting metalloproteinase activity, for example in mammalian tissue, by administering metabolites of prinomastat, such as a compound of the formula 11 or 22, or a pharmaceutically acceptable prodrug, salt or solvate thereof. The activity of the inventive compounds as inhibitors of metalloproteinase activity, such as the activity of MMPs (including stromelysins, collagenases, gelatinases, and/or matrilysin) and/or TNF-[…] convertase, may be measured by any of the methods available to those skilled in the art, including in vivo and/or in vitro assays. Examples of suitable assays fro activity measurements include those described in Anal. Biochem., 147, 437 (1995), Anal. Biochem., 180, 110 (1989), FEBS, 96, 263 (1992) and European Patent Application No. 0 606 046.

[2] = molecular target: T2, hGELA (Homo sapiens, UniProt P08253); assay: Ki for MMP inhibition, hGELA; type: biochemical
T2 sequence (P08253 110-660): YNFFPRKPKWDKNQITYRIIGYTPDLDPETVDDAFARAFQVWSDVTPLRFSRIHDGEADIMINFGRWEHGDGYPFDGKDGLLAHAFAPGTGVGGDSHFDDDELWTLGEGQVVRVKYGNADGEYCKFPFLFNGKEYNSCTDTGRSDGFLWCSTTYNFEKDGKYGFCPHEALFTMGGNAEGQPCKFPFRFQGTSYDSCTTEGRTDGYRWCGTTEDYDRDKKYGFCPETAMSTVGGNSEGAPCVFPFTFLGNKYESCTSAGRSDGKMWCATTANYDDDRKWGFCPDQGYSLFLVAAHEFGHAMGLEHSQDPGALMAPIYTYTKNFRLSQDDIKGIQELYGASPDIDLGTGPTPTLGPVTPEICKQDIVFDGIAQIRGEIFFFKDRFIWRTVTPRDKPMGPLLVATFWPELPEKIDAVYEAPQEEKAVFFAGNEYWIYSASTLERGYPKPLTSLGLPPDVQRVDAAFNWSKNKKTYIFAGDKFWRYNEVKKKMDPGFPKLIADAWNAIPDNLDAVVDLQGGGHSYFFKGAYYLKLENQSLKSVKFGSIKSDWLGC
From the text: as §1

[3] = Metabolic composition of human plasma after single oral dose of prinomastat (LC-MS/MS); type: in vivo; conditions: single 100 mg oral dose of prinomastat
Method: Five healthy male volunteers received a 100 mg oral dose of prinomastat tablets in a phase I, double-blind, ascending single dose study. Blood samples were drawn at pre-selected time points, and the plasma was separated by centrifugation and stored at −20° C.
The human plasma samples at 1.5, 4, 8 and 12 hours pooled from five male volunteers were selected for the analysis of metabolites by liquid chromatography tandem mass spectroscopy (LC-MS/MS). Samples were treated with three volumes of an AcN:MeOH mixture (2:1) to precipitate plasma proteins. Following centrifugation, protein pellets were separated and washed twice with two volumes of the same AcN:MeOH mixture. The combined supernatant was evaporated to dryness under vacuum using a SpeedVac™ (Savant Instrument, Holbrook, N.Y.), and the dried residue was reconstituted in 0.1% formic acid-acetonitrile (90:10), and analyzed by LC-MS/MS.
Two LC-MS/MS systems were used to analyze the plasma samples. […]
The relative peak heights of prinomastat and its metabolites in the LC-MS reconstructed ion chromatograms (RIC) were used to estimate the relative abundance of each component, which was expressed as percent of total prinomastat related compounds. […]
Human plasma pooled from five male volunteers was analyzed for metabolites at 1.5 hr, 4, 8 and 12 hours. […]

[4] = molecular target: T3, hCOL1 (Homo sapiens, UniProt P03956); assay: Ki for MMP inhibition, hCOL1; type: biochemical
T3 sequence (P03956 100-469): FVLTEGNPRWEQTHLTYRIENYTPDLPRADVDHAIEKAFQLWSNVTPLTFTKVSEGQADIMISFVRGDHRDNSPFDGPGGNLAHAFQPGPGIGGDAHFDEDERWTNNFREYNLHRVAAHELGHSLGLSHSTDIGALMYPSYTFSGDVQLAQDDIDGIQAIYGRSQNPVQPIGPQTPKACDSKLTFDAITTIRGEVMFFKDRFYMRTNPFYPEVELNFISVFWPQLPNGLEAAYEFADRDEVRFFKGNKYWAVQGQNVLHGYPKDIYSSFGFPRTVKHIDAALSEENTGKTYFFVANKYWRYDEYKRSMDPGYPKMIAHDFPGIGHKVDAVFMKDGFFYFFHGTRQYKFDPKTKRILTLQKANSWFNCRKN
From the text: as §1

[5] = molecular target: hSLN (Homo sapiens, UniProt P08254); assay: Ki for MMP inhibition, hSLN; type: biochemical
From the text: as §1

[6] = molecular target: hCOL3 (Homo sapiens, UniProt P45452); assay: Ki for MMP inhibition, hCOL3; type: biochemical
From the text: as §1

hSLN, sequence (P08254 100-477): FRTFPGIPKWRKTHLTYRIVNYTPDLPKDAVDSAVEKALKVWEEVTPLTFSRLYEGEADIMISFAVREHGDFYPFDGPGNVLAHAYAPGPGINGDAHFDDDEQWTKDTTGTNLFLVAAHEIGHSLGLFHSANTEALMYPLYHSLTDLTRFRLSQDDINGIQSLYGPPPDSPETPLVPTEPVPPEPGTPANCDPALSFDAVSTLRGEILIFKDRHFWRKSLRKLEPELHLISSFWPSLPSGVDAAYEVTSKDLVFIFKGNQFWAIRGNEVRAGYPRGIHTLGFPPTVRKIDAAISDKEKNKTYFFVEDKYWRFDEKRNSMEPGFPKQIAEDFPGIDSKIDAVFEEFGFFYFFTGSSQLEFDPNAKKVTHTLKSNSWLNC

| SMILES | Ki [1] [nM] | Ki [2] [nM] | share of the total drug-related substance in human plasma ([3]; later time points) [%] | Ki [4] [nM] | Ki [5] [nM] | Ki [6] [nM] | relative abundance among circulating drug-related compounds in human plasma ([3]; early time points) |
| --- | --- | --- | --- | --- | --- | --- | --- |
| CC1(C)SCCN(S(=O)(=O)c2ccc(Oc3cc[n+]([O-])cc3)cc2)[C@H]1C(=O)NO [M6, (3S)-N-hydroxy-4-(4-((1-oxy-pyrid-4-yl)oxy)benzenesulfonyl)-2,2-dimethyl-tetrahydro-2H-1,4-thiazine-3-carboxamide] | 1140 | 6.6 | ≤ 50 | 396 | 5.1 | 4 | – |
| CC1(C)SCCN(S(=O)(=O)c2ccc(Oc3ccncc3)cc2)[C@H]1C(=O)NO [parent drug, (3S)-N-hydroxy-4-(4-(pyrid-4-yloxy)benzenesulfonyl)-2,2-dimethyl-tetrahydro-2H-1,4-thiazine-3-carboxamide, reference compound] | – | – | – | – | – | – | major circulating compound |
